From US20230391772A1, “METHODS AND COMPOSITIONS FOR TARGETED PROTEIN DEGRADATION” (Ranok Therapeutics (Hangzhou) Co. Ltd., priority 2020, published 2023)

What was measured:
HSP90a protein = biological target: T1, HSP90a protein (Homo sapiens, UniProt P07900); assay: HSP90α-binding fluorescent polarization (FP) assay, BODIPY-labeled RNK04010 probe; details: FP competition with RNK04010 (BODIPY-labeled), 5 nM, 300 min at 25° C.
T1 construct: purchased BPS Bioscience 50298
Method in brief: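 Polarization signal was read after equilibration at 25° C, for 120 min with FITC-geldanamycin or 300 min with the BODIPY-tagged RNK04010 probe, each at 5 nM final. Compounds spanned 20 μM down to 5.2 nM in 2.5-fold dilutions against the HSP90a N-terminal domain.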

KRAS(G12C) = KRAS(G12C) (Homo sapiens, UniProt P01116, G12C); assay: KRAS(G12C)/SOS1 homogeneous time-resolved fluorescence (HTRF) assay; parameters: purchased Cisbio 63ADK000CB16PEG; details: absence of GTP, 4° C. for 3 hr, read-out: KRAS (G12C) binding
Sequence of KRAS(G12C) (P01116 1-188 isoform P01116-2 G12C): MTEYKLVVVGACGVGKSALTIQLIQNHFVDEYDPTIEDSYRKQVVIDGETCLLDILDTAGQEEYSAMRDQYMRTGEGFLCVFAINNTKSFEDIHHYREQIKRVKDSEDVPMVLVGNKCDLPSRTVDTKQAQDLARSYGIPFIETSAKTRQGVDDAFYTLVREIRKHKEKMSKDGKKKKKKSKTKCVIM
Method in brief: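 HTRF kit measuring compound-induced block of KRAS(G12C)-SOS1 interaction without GTP. Compounds tested as 3-fold serial dilutions down to 1.02 nM, incubated with reaction components 3 h at 4 °C in sealed plates before fluorescence read.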

[1] = tested on: MIA PaCa-2 human pancreatic carcinoma; assay: MIA PaCa-2 CCK-8 proliferation assay; assay type: cell-based; details: Homo sapiens, MIA PaCa-2, 72 h, MIA PaCa-2 cells
Method in brief: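 CCK-8 absorbance readout; % inhibition = 100 − (compound − blank)/(DMSO − blank) × 100, blank = medium + DMSO, no cells. Dose range 20 μM down to 1.02 nM, 3-fold steps. KRAS(G12C) copy number: MIA PaCa-2 2; NCI-H358 1; NCI-H23 1.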

| Compound | IC50 (HSP90a protein) [µM] | IC50 (KRAS(G12C)) [µM] | EC50 [1] [µM] |
| --- | --- | --- | --- |
| C=CC(=O)N1CCN(c2nc(OCC3CN(C(=O)C4CCN(Cc5ccc(-n6c(O)nnc6-c6cc(C(C)C)c(O)cc6O)cc5)CC4)C3)nc3c2CCN(c2cccc4cccc(Cl)c24)C3)C[C@@H]1CC#N [Compound 188, (S)-2-(1-acryloyl-4-(7-(8-chloronaphthalen-1-yl)-2-((1-(1-(4-(3-(2,4-dihydroxy-5-isopropylphenyl)-5-hydroxy-4H-1,2,4-triazol-4-yl)benzyl)piperidine-4-carbonyl)azetidin-3-yl)methoxy)-5,6,7,8-tetrahydropyrido[3,4-d]pyrimidin-4-yl)piperazin-2-yl)acetonitrile, trifluoroacetic acid] | < 0.1 | > 1 | 0.1 to 1 |
| CCC(=O)N1CCN(c2nc(OCCN3CCN(C(=O)C4CCN(Cc5ccc(-n6c(C(=O)NCC(F)(F)F)nnc6-c6cc(C(C)C)c(O)cc6O)cc5)CC4)CC3)nc3c2CCN(c2cccc4cccc(Cl)c24)C3)C[C@@H]1CC#N [Compound 208, (S)-4-(4-((4-(4-(2-((7-(8-chloronaphthalen-1-yl)-4-(3-(cyanomethyl)-4-propionylpiperazin-1-yl)-5,6,7,8-tetrahydropyrido[3,4-d]pyrimidin-2-yl)oxy)ethyl)piperazine-1-carbonyl)piperidin-1-yl)methyl)phenyl)-5-(2,4-dihydroxy-5-isopropylphenyl)-N-(2,2,2-trifluoroethyl)-4H-1,2,4-triazole-3-carboxamide] | < 0.1 | > 1 | < 0.1 |
| C=CC(=O)N1CCN(c2nc(OC[C@@H]3CCN3C(=O)C3CCN(Cc4ccc(-n5c(O)nnc5-c5cc(C(C)C)c(O)cc5O)cc4)CC3)nc3c2CCN(c2cccc4cccc(Cl)c24)C3)C[C@@H]1CC#N [Compound 189, 2-((S)-1-acryloyl-4-(7-(8-chloronaphthalen-1-yl)-2-(((S)-1-(1-(4-(3-(2,4-dihydroxy-5-isopropylphenyl)-5-hydroxy-4H-1,2,4-triazol-4-yl)benzyl)piperidine-4-carbonyl)azetidin-2-yl)methoxy)-5,6,7,8-tetrahydropyrido[3,4-d]pyrimidin-4-yl)piperazin-2-yl)acetonitrile, trifluoroacetic acid] | < 0.1 | > 1 | > 1 |
| C=CC(=O)N1CCN(c2nc(OC[C@@H]3C[C@@H](NC(=O)c4ccc(-n5c(O)nnc5-c5cc(C(C)C)c(O)cc5O)cc4)CN3C)nc3c2CCN(c2cccc4cccc(Cl)c24)C3)C[C@@H]1CC#N [Compound 196, N-((3R,5S)-5-(((4-((S)-4-acryloyl-3-(cyanomethyl)piperazin-1-yl)-7-(8-chloronaphthalen-1-yl)-5,6,7,8-tetrahydropyrido[3,4-d]pyrimidin-2-yl)oxy)methyl)-1-methylpyrrolidin-3-yl)-4-(3-(2,4-dihydroxy-5-isopropylphenyl)-5-hydroxy-4H-1,2,4-triazol-4-yl)benzamide, trifluoroacetic acid] | < 0.1 | 0.1 to 1 | > 1 |
| C=CC(=O)N1CCN(c2nc(OC[C@@H]3CC[C@H](C(=O)N4CCN(C(=O)C5CCN(Cc6ccc(-n7c(C(=O)NCC(F)(F)F)nnc7-c7cc(C(C)C)c(O)cc7O)cc6)CC5)CC4)N3C)nc3c2CCN(c2cccc4cccc(Cl)c24)C3)C[C@@H]1CC#N [Compound 304, 4-{4-[(4-{4-[(2R,5S)-5-({[7-(8-chloronaphthalen-1-yl)-4-[(3S)-3-(cyanomethyl)-4-(prop-2-enoyl)piperazin-1-yl]-5H,6H,8H-pyrido[3,4-d]pyrimidin-2-yl]oxy}methyl)-1-methylpyrrolidine-2-carbonyl]piperazine-1-carbonyl}piperidin-1-yl)methyl]p-henyl}-5-(2,4-dihydroxy-5-isopropylphenyl)-N-(2,2,2-trifluoroethyl)-1,2,4-triazole-3-carboxamide] | < 0.1 | 0.1 to 1 | < 0.1 |

Now from value to compound:

| IC50 (HSP90a protein) [µM] | IC50 (KRAS(G12C)) [µM] | EC50 [1] [µM] | Compound |
| --- | --- | --- | --- |
| < 0.1 | < 0.1 | 0.1 to 1 | C=CC(=O)N1CCN(c2nc(OC[C@@H]3C[C@H](N4CCC(C(=O)N5CCN(Cc6ccc(-n7c(O)nnc7-c7cc(C)c(O)cc7O)cc6)CC5)CC4)CN3C)nc3c2CCN(c2cccc4cccc(Cl)c24)C3)C[C@@H]1CC#N [Compound 321, 2-[(2S)-4-[7-(8-chloronaphthalen-1-yl)-2-{[(2S,4S)-4-{4-[4-({4-[3-(2,4-dihydroxy-5-methylphenyl)-5-hydroxy-1,2,4-triazol-4-yl]phenyl}methyl)piperazine-1-carbonyl]piperidin-1-yl}-1-methylpyrrolidin-2-yl]methoxy}-5H,6H,8H-pyrido[3,4d]-pyrimidin-4-yl]-1-(prop-2-enoyl)piperazin-2-yl]acetonitrile] |
| 0.1 to 1 | < 0.1 | > 1 | C=CC(=O)N1CCN(c2nc(OC[C@@H]3C[C@H](N4CCC5(CCN(Cc6cc(C(C)C)c(O)cc6O)CC5)CC4)CN3C)nc3c2CCN(c2cccc4cccc(Cl)c24)C3)C[C@@H]1CC#N [Compound 338, 2-[(2S)-4-[7-(8-chloronaphthalen-1-yl)-2-{[(2S,4S)-4-{9-[(2,4-dihydroxy-5-isopropylphenyl)methyl]-3,9-diazaspiro[5.5]undecan-3-yl}-1-methylpyrrolidin-2-yl]methoxy}-5H,6H,8H-pyrido[3,4-d]pyrimidin-4-yl]-1-(prop-2-enoyl)piperazin-2-yl]acetonitrile] |
| < 0.1 | < 0.1 | 0.1 to 1 | C=CC(=O)N1CCN(c2nc(OC[C@@H]3C[C@H](C(=O)N4CCN(Cc5ccc(-n6c(O)nnc6-c6cc(C(C)C)c(O)cc6O)cc5)CC4)CN3C)nc3c2CCN(c2cccc4cccc(Cl)c24)C3)C[C@@H]1CC#N [Compound 340, 2-[(2S)-4-[7-(8-chloronaphthalen-1-yl)-2-{[(2S,4S)-4-[4-({4-[3-(2,4-dihydroxy-5-isopropylphenyl)-5-hydroxy-1,2,4-triazol-4-yl]phenyl}methyl)piperazine-1-car-bonyl]-1-methylpyrrolidin-2-yl]methoxy}-5H,6H,8H-pyrido[3,4-d]pyrimidin-4-yl]-1-(prop-2-enoyl)piperazin-2-yl]acetonitrile] |
| < 0.1 | < 0.1 | 0.1 to 1 | C=CC(=O)N1CCN(c2nc(OC[C@@H]3C[C@H](N4CCC5(CCN(C(=O)C6CCN(Cc7ccc(-n8c(O)nnc8-c8cc(C(C)C)c(O)cc8O)cc7)CC6)CC5)CC4)CN3C)nc3c2CCN(c2cccc4cccc(Cl)c24)C3)C[C@@H]1CC#N [Compound 318, 2-[(2S)-4-[7-(8-chloronaphthalen-1-yl)-2-{[(2S,4S)-4-{9-[1-({4-[3-(2,4-dihydroxy-5-isopropylphenyl)-5-hydroxy-1,2,4-triazol-4-yl]phenyl}methyl)piperidine-4-carbonyl]-3,9-diazaspiro[5.5]undecan-3-yl}-1-methylpyrrolidin-2-yl]methoxy}-5H,6H,8H-pyrido[3,4-d]pyrimidin-4-yl]-1-(prop-2-enoyl)piperazin-2-yl]acetonitrile] |
| < 0.1 | < 0.1 | > 1 | C=CC(=O)N1CCN(c2nc(OC[C@@H]3C[C@H](N4CCC(C(=O)NCCc5ccc(-n6c(O)nnc6-c6cc(C(C)C)c(O)cc6O)cc5)CC4)CN3C)nc3c2CCN(c2cccc4cccc(Cl)c24)C3)C[C@@H]1CC#N [Compound 328, 1-[(3S,5S)-5-({[7-(8-chloronaphthalen-1-yl)-4-[(3S)-3-(cyanomethyl)-4-(prop-2-enoyl)piperazin-1-yl]-5H,6H,8H-pyrido[3,4-d]pyrimidin-2-yl]oxy}methyl)-1-methylpyrrolidin-3-yl]-N-(2-{4-[3-(2,4-dihydroxy-5-isopropylphenyl)-5-hydroxy-1,2,4-triazol-4-yl]phenyl}ethyl)piperidine-4-carboxamide] |
| < 0.1 | < 0.1 | < 0.1 | C=CC(=O)N1CCN(c2nc(OC[C@@H]3C[C@H](NC(=O)C4CCN(C(=O)C5CCN(Cc6ccc(-n7c(C(=O)NCC(F)(F)F)nnc7-c7cc(C(C)C)c(O)cc7O)cc6)CC5)CC4)CN3C)nc3c2CCN(c2cccc4cccc(Cl)c24)C3)C[C@@H]1CC#N [Compound 307, N-[(3S,5S)-5-({[7-(8-chloronaphthalen-1-yl)-4-[(3S)-3-(cyanomethyl)-4-(prop-2-enoyl)piperazin-1-yl]-5H,6H,8H-pyrido[3,4-d]pyrimidin-2-yl]oxy}methyl)-1-methylpyrrolidin-3-yl]-1-[1-({4-[3-(2,4-dihydroxy-5-isopropylphenyl)-5-[(2,2,2-tri-fluoroethyl)carbamoyl]-1,2,4-triazol-4-yl]phenyl}methyl)piperidine-4-carbonyl]piperidine-4-carboxamide] |
| < 0.1 | < 0.1 | 0.1 to 1 | C=CC(=O)N1CCN(c2nc(OC[C@@H]3C[C@H](NC(=O)C4CCN(C(=O)C5CCN(Cc6ccc(-n7c(O)nnc7-c7cc(C(C)C)c(O)cc7O)cc6)CC5)CC4)CN3C)nc3c2CCN(c2cccc4cccc(Cl)c24)C3)C[C@@H]1CC#N [Compound 309, N-[(3S,5S)-5-({[7-(8-chloronaphthalen-1-yl)-4-[(3S)-3-(cyanomethyl)-4-(prop-2-enoyl)piperazin-1-yl]-5H,6H,8H-pyrido[3,4-d]pyrimidin-2-yl]oxy}methyl)-1-methylpyrrolidin-3-yl]-1-[1-({4-[3-(2,4-dihydroxy-5-isopropylphenyl)-5-hydroxy-1,2,4-triazol-4-yl]phenyl}methyl)piperidine-4-carbonyl]piperidine-4-carboxamide] |
